T/C data for 16 compounds are collected here from PubChem BioAssay AID330 (DTP/NCI, 2004).

Several values for one entry are separate records, joined by “and”; a condition that tells them apart may be missing. Equal values may be shown once. Inconclusive results and toxic doses are left out. Peptide text beside a SMILES is read from it. * marks the point of attachment. Cbz = O=C(OCc1ccccc1)*

In this test the test system is P388 leukemia ip, CD2F1 mice, survival T/C. Kind of test: NCI In Vivo Anticancer Drug Screen. Data for tumor model P388 Leukemia (intraperitoneal) in CD2F1 (CDF1) mice. Particulars: endpoint: median survival time, higher = longer survival. In short, it runs like this:
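Mice carrying the transplanted tumor received test compound or vehicle. Survival was recorded in each group, and the value is the treated-group measurement divided by that of the vehicle-treated control group.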

Setting [1] is: dose: 60.0 mg/kg/injection, schedule: Q01DX005 (ip), vehicle: saline with Tween-80.
[2] abbreviates: dose: 50.0 mg/kg/injection, schedule: Q01DX009 (ip), vehicle: Klucel (hydroxypropylcellulose) (HPC).
[3] abbreviates: dose: 100.0 mg/kg/injection, schedule: Q01DX009 (ip), vehicle: Klucel (hydroxypropylcellulose) (HPC).

Regarding `CC(C)CC(NC(=O)C(Cc1ccccc1)NC(=O)OCc1ccccc1)C(=O)NC(C)C(=O)O` (stereo not drawn) (Cbz-Phe-Leu-Ala-OH; configuration not given here), the T/C reads like this: (dose: 50.0 mg/kg/injection, schedule: Q01DX005 (ip), vehicle: saline with Tween-80) 95 % of control; (dose: 100.0 mg/kg/injection, schedule: Q01DX005 (ip), vehicle: saline with Tween-80) 97 % of control; (dose: 200.0 mg/kg/injection, schedule: Q01DX005 (ip), vehicle: saline with Tween-80) 104 % of control.
For the compound `O=C(CCl)Nc1cccc(CCC(=O)c2ccccc2NC(=O)CCl)c1`, the T/C (dose: 15.0 mg/kg/injection, schedule: Q01DX005 (ip), vehicle: saline) was 102 % of control; the T/C (dose: 30.0 mg/kg/injection, schedule: Q01DX005 (ip), vehicle: saline) was 106 % of control; the T/C under setting [1] was 100 % of control; the T/C (dose: 60.0 mg/kg/injection, schedule: Q01DX005 (ip), vehicle: saline) is 100 % of control.
On to `CC/C(=N\NC(N)=NC)c1ccc(Cl)cc1`, for which the T/C (dose: 25.0 mg/kg/injection, schedule: Q04DX002 (ip), vehicle: saline) is 101 % of control.
As for `CNc1onc(C)c1C`, the T/C (dose: 50.0 mg/kg/injection, schedule: Q01DX009 (ip), vehicle: saline with Tween-80) was 103 % of control; the T/C (dose: 100.0 mg/kg/injection, schedule: Q01DX009 (ip), vehicle: saline with Tween-80) was 105 % of control; the T/C (dose: 200.0 mg/kg/injection, schedule: Q01DX009 (ip), vehicle: saline with Tween-80) is 100 % of control.
Consider `Cc1nn(C(=O)c2ccncc2)c(C)c1N=Nc1ccc(S(N)(=O)=O)cc1`, for which the T/C under setting [2] is 105 % of control and the T/C under setting [3] was 101 % of control.
Turning to `Cc1cc(C(=O)Nc2ccc(NC3=NCCN3)cc2)c(C)cc1C(=O)Nc1ccc(NC2=NCCN2)cc1`, the T/C (dose: 12.5 mg/kg/injection, schedule: Q01DX005 (ip), vehicle: Klucel (hydroxypropylcellulose) (HPC)) was 101 % of control and the T/C (dose: 25.0 mg/kg/injection, schedule: Q01DX005 (ip), vehicle: Klucel (hydroxypropylcellulose) (HPC)) is 106 % of control.
In the case of `C[Si](C)(C)CC[Si]12OCCN(C3CCCCC3O1)C1CCCCC1O2` (stereo not drawn), the T/C (dose: 50.0 mg/kg/injection, schedule: Q01DX005 (ip), vehicle: Klucel (hydroxypropylcellulose) (HPC)) is 94 % of control; the T/C (dose: 100.0 mg/kg/injection, schedule: Q01DX005 (ip), vehicle: Klucel (hydroxypropylcellulose) (HPC)) is 104 % of control; the T/C (dose: 200.0 mg/kg/injection, schedule: Q01DX005 (ip), vehicle: Klucel (hydroxypropylcellulose) (HPC)) was 105 % of control.
`CC(C)(C)OOC(=O)c1ccccc1O`: the T/C (dose: 100.0 mg/kg/injection, schedule: Q04DX003 (ip), vehicle: saline sonified) was 100 % of control and the T/C (dose: 200.0 mg/kg/injection, schedule: Q04DX003 (ip), vehicle: saline sonified) was 100 % of control.
For `Nc1cc(Cl)c(O)c(Cl)c1`, the T/C was 100 % of control (dose: 25.0 mg/kg/injection, schedule: Q01DX001 (ip), vehicle: saline with Tween-80); 95 % of control (dose: 50.0 mg/kg/injection, schedule: Q01DX001 (ip), vehicle: saline with Tween-80); 90 % of control (dose: 100.0 mg/kg/injection, schedule: Q01DX001 (ip), vehicle: saline with Tween-80).
Consider `COc1cc(C=Nc2cccc(C(=O)O)c2)ccc1N(CCCl)CCCl`, for which the T/C reads like this: (dose: 25.0 mg/kg/injection, schedule: Q01DX009 (ip), vehicle: saline) 122 % of control; (dose: 50.0 mg/kg/injection, schedule: Q04DX003 (ip), vehicle: saline with Tween-80) 150 % of control; (dose: 66.0 mg/kg/injection, schedule: Q04DX003 (ip), vehicle: saline with Tween-80) 272 % of control; (dose: 100.0 mg/kg/injection, schedule: Q04DX003 (ip), vehicle: saline with Tween-80) 181 % of control.
As to `CCCCOP(=O)(OCCCC)OC(=C(F)F)C(F)(F)P(=O)(OCCCC)OCCCC`, the T/C was 98 % of control (dose: 6.25 mg/kg/injection, schedule: Q01DX009 (ip), vehicle: Klucel (hydroxypropylcellulose) (HPC)); 91 % of control (dose: 12.5 mg/kg/injection, schedule: Q01DX009 (ip), vehicle: Klucel (hydroxypropylcellulose) (HPC)); 100 % of control (dose: 25.0 mg/kg/injection, schedule: Q01DX009 (ip), vehicle: Klucel (hydroxypropylcellulose) (HPC)).
In the case of `O=C(NCCN1CCNCC1)c1ccc(Cl)cc1`, the T/C under setting [1] is 97 % of control; the T/C (dose: 120.0 mg/kg/injection, schedule: Q01DX005 (ip), vehicle: saline with Tween-80) was 92 % of control; the T/C (dose: 240.0 mg/kg/injection, schedule: Q01DX005 (ip), vehicle: saline with Tween-80) is 93 % of control.
As for `NC(=S)c1cc(Cl)cc(Cl)c1N`, the T/C is 100 % of control (dose: 3.75 mg/kg/injection, schedule: Q01DX005 (ip), vehicle: Klucel (hydroxypropylcellulose) (HPC)); 98 % of control (dose: 7.5 mg/kg/injection, schedule: Q01DX005 (ip), vehicle: Klucel (hydroxypropylcellulose) (HPC)); 99 % of control and 96 % of control (dose: 15.0 mg/kg/injection, schedule: Q01DX005 (ip), vehicle: Klucel (hydroxypropylcellulose) (HPC)); 94 % of control (dose: 30.0 mg/kg/injection, schedule: Q01DX005 (ip), vehicle: Klucel (hydroxypropylcellulose) (HPC)); 92 % of control (dose: 60.0 mg/kg/injection, schedule: Q01DX005 (ip), vehicle: Klucel (hydroxypropylcellulose) (HPC)).
For `COc1cc(/C=C2/CCC/C(=C\c3ccc(OCC(O)COc4ccc(C(C)(C)c5ccc(OCC6CO6)cc5)cc4)c(OC)c3)C2=O)ccc1OCC(O)COc1ccc(C(C)(C)c2ccc(OCC3CO3)cc2)cc1` (stereo not drawn), the T/C reads like this: under setting [2], 96 % of control; under setting [3], 97 % of control; (dose: 200.0 mg/kg/injection, schedule: Q01DX009 (ip), vehicle: Klucel (hydroxypropylcellulose) (HPC)) 95 % of control.
In the case of `COc1ccc(Cc2cc3c(cc2OC)OCO3)cc1`, the T/C is 99 % of control (dose: 2.5 mg/kg/injection, schedule: Q01DX009 (ip), vehicle: saline with Tween-80); 99 % of control (dose: 5.0 mg/kg/injection, schedule: Q01DX009 (ip), vehicle: saline with Tween-80); 99 % of control (dose: 10.0 mg/kg/injection, schedule: Q01DX009 (ip), vehicle: saline with Tween-80); 102 % of control (dose: 15.0 mg/kg/injection, schedule: Q01DX005 (ip), vehicle: saline with Tween-80); 102 % of control (dose: 31.0 mg/kg/injection, schedule: Q01DX005 (ip), vehicle: saline with Tween-80); 109 % of control (dose: 62.5 mg/kg/injection, schedule: Q01DX005 (ip), vehicle: saline with Tween-80). In addition, the T/C is 103 % of control (dose: 125.0 mg/kg/injection, schedule: Q01DX005 (ip), vehicle: saline with Tween-80) and 103 % of control (dose: 250.0 mg/kg/injection, schedule: Q01DX005 (ip), vehicle: saline with Tween-80).
Consider `C=C1C(=O)C23C(OC(=O)CCC)C1CCC2C12COC3(O)C(O)C1C(C)(C)CCC2O` (stereo not drawn), for which the T/C is 102 % of control (dose: 3.75 mg/kg/injection, schedule: Q01DX009 (ip), vehicle: saline with Tween-80); 101 % of control (dose: 7.5 mg/kg/injection, schedule: Q01DX009 (ip), vehicle: saline with Tween-80); 107 % of control (dose: 15.0 mg/kg/injection, schedule: Q01DX009 (ip), vehicle: saline with Tween-80); 111 % of control (dose: 30.0 mg/kg/injection, schedule: Q01DX009 (ip), vehicle: saline with Tween-80).
